Reference: the supplement of paper PMC10307832

What was measured:
Assay in all cases: relative viability (nuclei count vs DMSO), 5 days (fraction); higher = more cells survive
[1] = compound: Cc1ccc(C(=O)N(CCCN)[C@@H](c2nc3cc(Cl)ccc3c(=O)n2Cc2ccccc2)C(C)C)cc1 [Ispinesib] + C[C@]1(O)C[C@@H](c2nc(-c3ccc4ccc(-c5ccccc5)nc4c3)c3c(N)nccn32)C1 [Linsitinib] (partner 1 µM)
In short: (§1)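 Values are medians from duplicate plates. Each reflects relative viability, defined as the nuclei count of treated wells over that of vehicle wells. Lung cancer cell lines in 1536-well plates were pin-tool dosed one day after seeding with one drug alone or with a fixed anchor-drug dose plus five library-drug doses (not always all listed) in √10 steps, then fixed, stained and imaged at 4× after 5 days.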

[2] = compound: C[C@]1(O)C[C@@H](c2nc(-c3ccc4ccc(-c5ccccc5)nc4c3)c3c(N)nccn32)C1 [Linsitinib] + COc1cc2c(Oc3ccc(NC(=O)C4(C(=O)Nc5ccc(F)cc5)CC4)cc3F)ccnc2cc1OCCCN1CCOCC1 [Foretinib] (partner 0.25 µM)
In short: as §1

[3] = compound: C[C@]1(O)C[C@@H](c2nc(-c3ccc4ccc(-c5ccccc5)nc4c3)c3c(N)nccn32)C1 [Linsitinib] + CC(C)C[C@H](NC(=O)[C@H](Cc1ccccc1)NC(=O)c1cnccn1)B(O)O [Bortezomib] (partner 0.002 µM)
In short: as §1

[4] = compound: Cc1ccc(C(=O)N(CCCN)[C@@H](c2nc3cc(Cl)ccc3c(=O)n2Cc2ccccc2)C(C)C)cc1 [Ispinesib] + CC1(C)CCC(c2ccc(Cl)cc2)=C(CN2CCN(c3ccc(C(=O)NS(=O)(=O)c4ccc(N[C@H](CCN5CCOCC5)CSc5ccccc5)c(S(=O)(=O)C(F)(F)F)c4)cc3)CC2)C1 [Navitoclax] (partner 0.5 µM)
In short: as §1

Cell Line | relative viability ([1]; first compound 0.001 µM) | relative viability ([1]; first compound 0.003162 µM) | relative viability ([1]; first compound 0.01 µM) | relative viability ([1]; first compound 0.03162 µM) | relative viability ([1]; first compound 0.1 µM) | relative viability ([2]; first compound 0.01 µM) | relative viability ([2]; first compound 0.03162 µM) | relative viability ([2]; first compound 0.1 µM) | relative viability ([2]; first compound 0.3162 µM) | relative viability ([2]; first compound 1 µM) | relative viability ([3]; first compound 0.01 µM) | relative viability ([3]; first compound 0.03162 µM) | relative viability ([3]; first compound 0.1 µM) | relative viability ([3]; first compound 0.3162 µM) | relative viability ([3]; first compound 1 µM) | relative viability ([4]; first compound 0.001 µM) | relative viability ([4]; first compound 0.003162 µM) | relative viability ([4]; first compound 0.01 µM) | relative viability ([4]; first compound 0.03162 µM) | relative viability ([4]; first compound 0.1 µM)
LC-2-ad | 0.842 | 0.845 | 0.971 | 0.556 | 0.184 | 0.983 | 0.979 | 0.858 | 0.738 | 0.671 | 1 | 1.1 | 1.02 | 0.664 | 0.636 | 0.391 | 0.487 | 0.474 | 0.171 | 0.122
NCI-H322M | 0.966 | 0.945 | 1.01 | 0.569 | 0.921 | 1 | 0.77 | 0.989 | 0.916 | 0.923 | 1.24 | 1.12 | 1.44 | 0.922 | 1.19 | 1.2 | 1.13 | 1.15 | 1.14 | 1.15
SK-LU-1 | 1.15 | 1.32 | 1.43 | 0.932 | 0.382 | 0.813 | – | 0.804 | 0.712 | 0.72 | 1.19 | 0.659 | 1.25 | 0.492 | 0.561 | 0.955 | 0.794 | 1.23 | 0.415 | 0.164
NCI-H1734 | 0.911 | 0.92 | 1 | 0.878 | 0.634 | 0.827 | 0.866 | 0.801 | 0.795 | 0.604 | 0.851 | 0.962 | 1.01 | 0.665 | 0.643 | 0.868 | 0.952 | 1.04 | 0.777 | 0.549
NCI-H1703 | 0.742 | 0.64 | 0.504 | 0.106 | 0.0823 | 0.356 | – | 0.379 | 0.513 | 0.267 | 0.416 | – | 0.317 | 0.288 | 0.314 | 1.2 | 0.727 | 0.117 | 0.0871 | 0.114
NCI-H1355 | 0.82 | 0.794 | 0.893 | 0.795 | 0.561 | 0.973 | 0.964 | 0.873 | 0.811 | 0.759 | 1.19 | 1.25 | 1.18 | 0.748 | 0.79 | 0.996 | 0.878 | 0.927 | 1.08 | 0.688
IA-LM | 0.493 | 0.567 | 0.996 | 0.549 | 0.158 | 1.12 | 1.06 | 0.867 | 0.783 | 1.07 | 0.748 | 0.824 | 0.789 | 0.648 | 0.678 | 0.969 | 0.751 | 0.44 | 0.0088 | 0.0187
NCI-H1666 | 1.05 | 0.907 | 0.833 | 0.767 | 0.408 | 0.94 | 1.05 | 0.933 | 0.758 | 0.852 | 0.675 | 0.798 | 0.774 | 0.348 | 0.308 | 0.987 | 0.876 | 0.945 | 0.527 | 0.25
HCC-78 | 0.51 | 0.498 | 0.509 | – | 0.151 | 0.545 | 0.567 | 0.471 | 0.44 | 0.39 | 0.511 | 0.645 | 0.507 | 0.525 | 0.395 | 0.706 | 0.851 | 0.85 | – | 0.657
H3255 | 0.919 | 1.19 | 1.06 | 0.785 | 0.292 | 0.796 | 0.907 | 0.944 | 0.682 | 0.976 | 0.803 | 0.796 | 0.812 | 0.541 | 0.627 | 0.562 | 0.541 | 0.46 | 0.344 | 0.217
NCI-H23 | 0.568 | 0.559 | 0.707 | 0.618 | 0.28 | 1.04 | 1.06 | 0.924 | 0.949 | 1 | 0.96 | 1.17 | 1.06 | 0.681 | 0.589 | 0.803 | 0.783 | 1.04 | 0.794 | 0.472
NCI-H1651 | 1.16 | 0.921 | 1.18 | 1.05 | 0.203 | 0.7 | 0.81 | 0.753 | 0.683 | 0.734 | 0.954 | 0.976 | 0.792 | 0.82 | 0.916 | 1.28 | 1.13 | 1.3 | 0.991 | 0.213
EBC-1 | 0.926 | 1.04 | 1.04 | 0.8 | 0.187 | 0.115 | 0.109 | 0.0995 | 0.106 | 0.104 | 0.59 | 0.536 | 0.579 | 0.519 | 0.442 | 0.349 | 0.43 | 0.246 | 0.189 | 0.223
COR-L 105 | 0.985 | 0.993 | 0.814 | 0.492 | 0.26 | 0.969 | 1.03 | 1.08 | 0.956 | 0.908 | 0.821 | 0.619 | 0.785 | 0.389 | 0.501 | 0.722 | 0.824 | 0.676 | 0.464 | 0.345
RERF-LC-KJ | 1.01 | 0.855 | 1.02 | 0.819 | 0.244 | 0.836 | 0.935 | 0.907 | 0.487 | 0.79 | 0.95 | 1.03 | 1.16 | 0.892 | 0.927 | 1.17 | 0.997 | 1.01 | 0.74 | 0.369
